Patent US8592464B2, “Nitric oxide furoxan derivative compounds endowed with antitumoral activity” (Humanitas Mirasole S.p.A., priority 2009, dated 2013)

How the values were obtained:
[1] = test system: cytolytic activity of CD8+ T cells against allogenic (MBL-2) target cells; assay: Chromium release assay (in vitro cytotoxicity), B6+C26GM culture: immunosuppressed splenocytes from tumor-bearing mice; format: cell-based; conditions: strong immunosuppressive conditions, 5-h 51Cr-release
[2] = test system: cytolytic activity of CD8+ T cells against allogenic (MBL-2) target cells; assay: Chromium release assay (in vitro cytotoxicity), B6+Balb+3% CD11b+ mixed leucocytes culture; format: cell-based, mice; conditions: 5-h 51Cr-release
coloncarcinoma26 = assay: Immunohistochemistry of tumors of tumor-bearing mice after oral AT38; format: in vivo, BALB/c mice; conditions: 10, 30 and 100 mg/kg/day orally for nine days; compared to untreated controls

**Q.** Which melting point does the source give for `NC(=O)c1c(COC(=O)c2ccc(Cl)cc2)no[n+]1[O-]` here?
**A.** 171 to 172 °C

**Q.** For `N#Cc1ccc(C(=O)OCc2no[n+]([O-])c2C(N)=O)cc1`, which melting point is on record?
**A.** 190 to 191 °C

**Q.** For `NC(=O)c1c(COC(=O)c2ccccc2)no[n+]1[O-]` (hydrate or solvate), which melting point is on record?
**A.** 163 to 165 °C

**Q.** Which melting point does the source give for `NC(=O)c1c(COC(=O)c2ccc(N)cc2)no[n+]1[O-]` (hydrate or solvate) here?
**A.** 206 to 208 °C

**Q.** Which melting point does the source give for `NC(=O)c1c(COC(=O)c2ccccc2O)no[n+]1[O-]` (hydrate or solvate) here?
**A.** 176 to 177 °C

**Q.** With `NC(=O)c1c(COC(=O)c2cccc(O)c2)no[n+]1[O-]` (hydrate or solvate) as the compound, how does the melting point read?
**A.** 203 to 204 °C

**Q.** With `NC(=O)c1c(COC(=O)c2ccc(O)cc2)no[n+]1[O-]` (hydrate or solvate) as the compound, how does the melting point read?
**A.** 241 to 242 °C

**Q.** Which melting point does the source give for `NC(=O)c1c(COC(=O)c2ccc(F)cc2)no[n+]1[O-]` (hydrate or solvate) here?
**A.** 163 to 164 °C

**Q.** With `NC(=O)c1c(COC(=O)c2ccc([N+](=O)[O-])cc2)no[n+]1[O-]` (hydrate or solvate) as the compound, how does the melting point read?
**A.** 172 to 173 °C

**Q.** For `Cc1ccc(C(=O)OCc2no[n+]([O-])c2C(N)=O)cc1` (hydrate or solvate), which melting point is on record?
**A.** 149 to 150 °C

**Q.** Which melting point does the source give for `COc1ccc(C(=O)OCc2no[n+]([O-])c2C(N)=O)cc1` (hydrate or solvate) here?
**A.** 175 to 176 °C

**Q.** What does the source list for `CC(=O)OCc1no[n+]([O-])c1C(N)=O` [AT24]?
**A.** Range of concentration to rescue cytolytic activity [1]: INEFFECTIVE; Range of concentration to rescue cytolytic activity [2]: INEFFECTIVE

**Q.** For `CC(=O)OCc1no[n+]([O-])c1C#N` [AT25], which “Range of concentration to rescue cytolytic activity” value (“Range of concentration” below) [1] is on record?
**A.** INEFFECTIVE

**Q.** With `CC(=O)Oc1ccccc1C(=O)OCc1no[n+]([O-])c1C(N)=O` [AT27] as the compound, how does the “Range of concentration” value [1] read?
**A.** 25 µM

**Q.** What does the source list for `NC(=O)c1c(COC(=O)c2ccccc2O)no[n+]1[O-]` [AT38]?
**A.** Range of concentration to rescue cytolytic activity [1]: 25 µM; CD3+ T tumor infiltrating lymphocytes (coloncarcinoma26): enhancement; nitrotyrosine staining (coloncarcinoma26): strong reduction

**Q.** For `NC(=O)c1c(COc2ccc(C(=O)O)c(O)c2)no[n+]1[O-]` [AT43], which “Range of concentration” value [1] is on record?
**A.** INEFFECTIVE

**Q.** What does the source list for `NC(=O)c1c(COC(=O)c2ccccc2)no[n+]1[O-]` [AT44]?
**A.** Range of concentration to rescue cytolytic activity [1]: INEFFECTIVE; Range of concentration to rescue cytolytic activity [2]: 76 µM

**Q.** Which results are given for `NC(=O)c1c(COC(=O)c2ccc(O)cc2)no[n+]1[O-]` [AT45]?
**A.** Range of concentration to rescue cytolytic activity [1]: 100 µM; Range of concentration to rescue cytolytic activity [2]: 72 µM

**Q.** For `NC(=O)c1c(COC(=O)c2cccc(O)c2)no[n+]1[O-]` [AT47], which “Range of concentration” value [1] is on record?
**A.** 50 µM

**Q.** For `NC(=O)c1c(S(=O)(=O)c2ccccc2)no[n+]1[O-]` [AT94], which “Range of concentration” value [1] is on record?
**A.** INEFFECTIVE

**Q.** Which “Range of concentration” value [1] does the source give for `NC(=O)c1c(COC(=O)/C=C/c2ccccc2)no[n+]1[O-]` [AT110] here?
**A.** 100 µM

**Q.** For `NC(=O)c1c(COC(=O)c2cccnc2)no[n+]1[O-]` [AT112], which “Range of concentration” value [1] is on record?
**A.** 200 µM

**Q.** With `NC(=O)c1c(COC(=O)/C=C/c2ccccc2O)no[n+]1[O-]` [AT113] as the compound, how does the “Range of concentration” value [1] read?
**A.** 100 µM
